The values that follow come from article PMC7999182, “Interaction of Remdesivir with Clinically Relevant Hepatic Drug Uptake Transporters” (Pharmaceutics, 2021).

Molecules are shown by their SMILES.

One series deals with T1, OATP1B3 (Homo sapiens, UniProt Q9NPD5).
T1 construct: expressed in transfected cells
T1 sequence (Q9NPD5 1-702): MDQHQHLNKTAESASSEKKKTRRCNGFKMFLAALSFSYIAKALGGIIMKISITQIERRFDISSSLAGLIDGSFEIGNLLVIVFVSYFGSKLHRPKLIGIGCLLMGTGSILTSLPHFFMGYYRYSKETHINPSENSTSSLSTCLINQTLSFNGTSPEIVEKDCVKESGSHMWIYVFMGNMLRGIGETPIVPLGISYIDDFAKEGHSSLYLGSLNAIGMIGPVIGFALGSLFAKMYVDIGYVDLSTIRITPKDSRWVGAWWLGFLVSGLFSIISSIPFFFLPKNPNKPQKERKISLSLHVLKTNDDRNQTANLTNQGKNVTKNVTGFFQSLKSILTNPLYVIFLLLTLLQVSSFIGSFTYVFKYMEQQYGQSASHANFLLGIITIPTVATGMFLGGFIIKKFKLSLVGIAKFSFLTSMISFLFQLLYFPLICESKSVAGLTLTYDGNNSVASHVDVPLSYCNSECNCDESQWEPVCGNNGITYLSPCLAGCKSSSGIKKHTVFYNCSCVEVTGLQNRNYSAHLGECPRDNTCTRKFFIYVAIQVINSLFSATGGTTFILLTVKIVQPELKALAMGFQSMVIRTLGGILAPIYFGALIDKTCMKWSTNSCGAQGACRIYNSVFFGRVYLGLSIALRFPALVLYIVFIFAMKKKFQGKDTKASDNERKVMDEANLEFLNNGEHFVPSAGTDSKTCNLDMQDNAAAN
The experiment in a line: Remdesivir uptake into HEK cells stably expressing OATP1B3 vs vector control. It counts as in vitro ADME. To be noted: 5 µM remdesivir, 10 min, transporter-expressing vs control HEK cells. An excerpt:
(§1) Generation, cultivation and characterization of human embryonic kidney (HEK) cells stably expressing OATP1B1 refseq (=OATP1B1*1a), OATP1B1*1b, OATP1B1*5 and OATP1B1*15 [18], OATP1B3 [19], OATP2B1 [13] and OCT1 [20] have been described previously. OATP1B1 cells were cultivated in minimal essential medium (Life Technologies, Paisley, UK) and OATP1B3, OATP2B1 and OCT1 cells were cultivated in Dulbecco’s modified Eagle medium (Sigma, Darmstadt, Germany). Cultivation media were supplemented with 10% fetal calf serum, 100 U/mL penicillin and 100 µg/mL streptomycin. Cells were grown at 37 °C and 5% CO2. Functionality of the cells was confirmed by measuring uptake of prototypic substrates (see Section 2.3 and supplementary material).
(§2) Uptake assays were conducted at 37 °C according to previously described methods. For this, cells were seeded in 24-well plates (320,000 cells/well) and cultured for 2 days. Cells were then incubated for a further 24 h in culture medium with 5 mM butyrate (OATP1B3, OATP2B1, OCT1) or 10 mM butyrate (OATP1B1) to increase protein levels of recombinant transporters. […]
(§3) Remdesivir was determined by UHPLC-MS-MS analysis on an Agilent 1290 infinity UHPLC system coupled to an Agilent 6495B triple quadrupole mass spectrometer (Agilent, Waldbronn, Germany) similar to a recently published method. […]

In the next series the target is T2, OATP2B1 (Homo sapiens, UniProt O94956).
T2 construct: expressed in transfected cells
T2 sequence (O94956 1-709): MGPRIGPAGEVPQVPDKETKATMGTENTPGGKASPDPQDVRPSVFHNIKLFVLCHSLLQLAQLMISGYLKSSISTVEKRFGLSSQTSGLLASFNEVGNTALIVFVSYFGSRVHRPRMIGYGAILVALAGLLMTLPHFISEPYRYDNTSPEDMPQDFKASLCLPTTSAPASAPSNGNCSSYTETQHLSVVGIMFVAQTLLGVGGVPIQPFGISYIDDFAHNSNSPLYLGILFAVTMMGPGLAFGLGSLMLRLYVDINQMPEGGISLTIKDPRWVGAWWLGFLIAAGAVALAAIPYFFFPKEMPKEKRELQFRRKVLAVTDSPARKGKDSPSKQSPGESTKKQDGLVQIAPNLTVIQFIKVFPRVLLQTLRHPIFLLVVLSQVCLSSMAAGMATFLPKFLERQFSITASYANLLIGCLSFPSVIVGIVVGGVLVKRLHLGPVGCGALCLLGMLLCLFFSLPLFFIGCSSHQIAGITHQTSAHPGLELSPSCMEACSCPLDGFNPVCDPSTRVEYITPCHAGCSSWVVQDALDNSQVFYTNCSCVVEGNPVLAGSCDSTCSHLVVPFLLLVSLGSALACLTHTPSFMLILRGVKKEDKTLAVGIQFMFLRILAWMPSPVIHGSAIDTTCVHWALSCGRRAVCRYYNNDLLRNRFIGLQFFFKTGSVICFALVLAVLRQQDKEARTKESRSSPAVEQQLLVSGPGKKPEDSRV
The series is described as follows: Remdesivir uptake into HEK cells stably expressing OATP2B1 vs vector control. It counts as in vitro ADME. To be noted: 5 µM remdesivir, 10 min, transporter-expressing vs control HEK cells.
Source text: as §1, §2, §3

As to `CCC(CC)COC(=O)[C@H](C)N[P@](=O)(OC[C@H]1O[C@@](C#N)(c2ccc3c(N)ncnn23)[C@H](O)[C@@H]1O)Oc1ccccc1` [Remdesivir], the Remdesivir uptake ratio at OATP1B3 is reported as 1.5; on OATP2B1 it was 1.4.
